Calls of active or inactive are those of the source. The calls are words filed in the database; no cut-off is given here.
Experiments:
[1] = Inhibition of sheep brain dynamin 1 by malachite green GTPase assay; set-up: species or system Ovis aries
Ovis aries [2] = species: Ovis aries; assay: Inhibition of sheep brain dynamin 1 at 100 uM by malachite green GTPase assay
U2OS = assay: Cytotoxicity against human U2OS cells assessed as change in cell morphology after 30 mins; assay type: cell-based; conditions: 0.5 h
Dynamin-1 = molecular target: T1, Dynamin-1 (Rattus norvegicus, UniProt P21575); assay: Inhibition of dynamin 1-mediated synaptic vesicle endocytosis in Sprague-Dawley rat synaptosomes assessed as uptake of FM 4-64 dye after 30 mins by automated acquisition and analysis system; assay type: subcellular, Brain
T1 sequence (P21575 whole entry): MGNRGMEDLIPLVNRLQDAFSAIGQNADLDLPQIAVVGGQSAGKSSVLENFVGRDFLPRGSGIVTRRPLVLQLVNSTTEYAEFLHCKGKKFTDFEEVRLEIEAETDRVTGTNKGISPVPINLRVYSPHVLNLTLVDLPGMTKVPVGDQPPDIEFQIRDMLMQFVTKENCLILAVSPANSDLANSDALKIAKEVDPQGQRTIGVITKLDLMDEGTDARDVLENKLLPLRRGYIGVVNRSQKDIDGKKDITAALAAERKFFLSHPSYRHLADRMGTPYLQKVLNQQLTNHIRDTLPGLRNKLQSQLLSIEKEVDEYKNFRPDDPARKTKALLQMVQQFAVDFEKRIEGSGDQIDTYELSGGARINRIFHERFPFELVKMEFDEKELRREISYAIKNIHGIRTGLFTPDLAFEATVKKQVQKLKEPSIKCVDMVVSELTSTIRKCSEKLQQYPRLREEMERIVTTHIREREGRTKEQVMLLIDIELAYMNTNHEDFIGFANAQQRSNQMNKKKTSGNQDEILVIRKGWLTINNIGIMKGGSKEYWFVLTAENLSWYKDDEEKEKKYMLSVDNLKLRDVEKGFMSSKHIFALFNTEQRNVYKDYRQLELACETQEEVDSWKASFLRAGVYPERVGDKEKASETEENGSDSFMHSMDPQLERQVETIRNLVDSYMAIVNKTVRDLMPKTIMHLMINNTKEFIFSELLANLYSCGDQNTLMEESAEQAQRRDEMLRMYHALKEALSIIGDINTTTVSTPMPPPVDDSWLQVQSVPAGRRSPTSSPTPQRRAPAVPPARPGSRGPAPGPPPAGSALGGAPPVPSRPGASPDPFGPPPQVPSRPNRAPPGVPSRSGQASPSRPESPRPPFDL

Ovis aries [3] = species: Ovis aries; assay: Inhibition of sheep brain dynamin 1 at 300 uM by malachite green GTPase assay

Structure (SMILES)	IC50 [1]	inhibition (Ovis aries [2])	also measured
N=c1oc2ccccc2cc1C(=O)NCCCCNC(=O)c1cc2ccccc2oc1=N	> 300 µM	< 50%	–
N=c1oc2cc(O)c(O)cc2cc1C(=O)NCCCCCCNC(=O)c1cc2cc(O)c(O)cc2oc1=N	82 µM	–	–
N=c1oc2c(O)cccc2cc1C(=O)NCCCNC(=O)c1cc2cccc(O)c2oc1=N	36.6 µM	–	Activity (U2OS): Non-toxic; IC50 (Dynamin-1): Not Active
N=c1oc2ccccc2cc1C(=O)NCCCCCCNC(=O)c1cc2ccccc2oc1=N	> 300 µM	< 50%	–
N=c1oc2ccccc2cc1C(=O)NCCCNC(=O)c1cc2ccccc2oc1=N	> 300 µM	< 50%	–
N#C/C(=C\c1ccc(O)c(O)c1)C(=O)NCCCNC(=O)/C(C#N)=C/c1ccc(O)c(O)c1	1.7 µM	–	–
N=c1oc2cc(O)ccc2cc1C(=O)NCCNC(=O)c1cc2ccc(O)cc2oc1=N	100 µM	–	inhibition (Ovis aries [3]): inactive
N=c1oc2c(O)cccc2cc1C(=O)NCCCCNC(=O)c1cc2cccc(O)c2oc1=N	–	< 50%	–
N#C/C(=C\c1ccc(O)cc1)C(=O)NCCCNC(=O)/C(C#N)=C/c1ccc(O)c(O)c1	51 µM	–	–
COc1ccc(/C=C(\C#N)C(=O)NCCCNC(=O)/C(C#N)=C/c2ccc(O)c(O)c2)cc1OC	44 µM	–	–
N=c1oc2c(O)c(O)ccc2cc1C(=O)NCCCCCCNC(=O)c1cc2ccc(O)c(O)c2oc1=N	70 µM	–	–
N=c1oc2c(O)c(O)ccc2cc1C(=O)NCCCCNC(=O)c1cc2ccc(O)c(O)c2oc1=N	4.3 µM	–	–
N#C/C(=C\c1ccccc1)C(=O)NCCCNC(=O)/C(C#N)=C/c1ccc(O)c(O)c1	146 µM	–	–
N=c1oc2cc(O)c(O)cc2cc1C(=O)NCCNC(=O)c1cc2cc(O)c(O)cc2oc1=N	6 µM	–	–
N#C/C(=C\c1ccc(C2(C(F)(F)F)N=N2)cc1)C(=O)NCCCNC(=O)/C(C#N)=C/c1ccc(O)c(O)c1	36 µM	–	–
N=c1oc2c(O)c(O)ccc2cc1C(=O)NCCNC(=O)c1cc2ccc(O)c(O)c2oc1=N	0.33 µM	–	IC50 (Dynamin-1): Not Active
N=c1oc2c(O)cccc2cc1C(=O)NCCNC(=O)c1cc2cccc(O)c2oc1=N	–	< 50%	–
N=c1oc2c(O)cccc2cc1C(=O)NCCCCCCNC(=O)c1cc2cccc(O)c2oc1=N	–	< 50%	–
N=c1oc2cc(O)ccc2cc1C(=O)NCCCCCCNC(=O)c1cc2ccc(O)cc2oc1=N	–	< 50%	–

Continued, in another order:

IC50 [1]	inhibition (Ovis aries [2])	Structure (SMILES)	also measured
–	< 50%	N=c1oc2cc(O)ccc2cc1C(=O)NCCCCNC(=O)c1cc2ccc(O)cc2oc1=N	–
–	< 50%	N=c1oc2c(O)cccc2cc1C(=O)NCCCCCNC(=O)c1cc2cccc(O)c2oc1=N	–
0.26 µM	–	N=c1oc2cc(O)c(O)cc2cc1C(=O)NCCCNC(=O)c1cc2cc(O)c(O)cc2oc1=N	Activity (U2OS): Non-toxic; IC50 (Dynamin-1; read-out: IC50): 40.4 µM
3.2 µM	–	N=c1oc2cc(O)c(O)cc2cc1C(=O)NCCCCNC(=O)c1cc2cc(O)c(O)cc2oc1=N	–
> 300 µM	< 50%	N=c1oc2ccccc2cc1C(=O)NCCCCCNC(=O)c1cc2ccccc2oc1=N	–
19 µM	–	N=c1oc2c(O)c(O)ccc2cc1C(=O)NCCCCCNC(=O)c1cc2ccc(O)c(O)c2oc1=N	–
> 300 µM	< 50%	N=c1oc2ccccc2cc1C(=O)NCCNC(=O)c1cc2ccccc2oc1=N	–
0.45 µM	–	N=c1oc2c(O)c(O)ccc2cc1C(=O)NCCCNC(=O)c1cc2ccc(O)c(O)c2oc1=N	Activity (U2OS): Non-toxic; IC50 (Dynamin-1; read-out: IC50): 99.5 µM
17.3 µM	–	N=c1oc2cc(O)ccc2cc1C(=O)NCCCNC(=O)c1cc2ccc(O)cc2oc1=N	IC50 (Dynamin-1; read-out: IC50): 66.1 µM
17 µM	–	N=c1oc2cc(O)c(O)cc2cc1C(=O)NCCCCCNC(=O)c1cc2cc(O)c(O)cc2oc1=N	–
–	< 50%	N=c1oc2cc(O)ccc2cc1C(=O)NCCCCCNC(=O)c1cc2ccc(O)cc2oc1=N	–
6.4 µM	–	N#C/C(=C\c1ccc(N=[N+]=[N-])cc1)C(=O)NCCCNC(=O)/C(C#N)=C/c1ccc(O)c(O)c1	–

— ChEMBL document CHEMBL1157798, “Iminochromene inhibitors of dynamins I and II GTPase activity and endocytosis” (J Med Chem, 2010)
